In ChEMBL document CHEMBL4725481, “Novel Betulinic Acid-Nucleoside Hybrids with Potent Anti-HIV Activity” (ACS Med Chem Lett, 2020):

Experiments:
[1] = Antiviral activity against HIV 1 NL4-3 infected in human MT4 cells assessed as reduction in viral replication and measured on day 3 post infection by Nano-glo luciferase reporter assay; format: functional, cell-based
[2] = Selectivity index, ratio of CC50 for human MT4 cells to EC50 for antiviral activity against HIV1 NL4-3; format: toxicity
[3] = Cytotoxicity against human MT4 cells treated for 3 days measured by Celltiter-glo luminescent assay; format: cell-based; conditions: time 3 day
[4] = Homo sapiens, NL4-3, MT4, 72 h, read-out: IC50

Structure (SMILES) | IC50 [1, 4] [µM] | selectivity ratio [2] | CC50 at 72 h [3] [µM] | IC50 ([1]; mt4)
[N-]=[N+]=N[C@]1(CO)O[C@@H](n2ccc(=O)[nH]c2=O)[C@@H](F)[C@@H]1O | 0.219 | > 16 | > 3.48 | –
C=C(C)[C@@H]1CC[C@]2(C(=O)OC)CC[C@]3(C)[C@H](CC[C@@H]4[C@@]5(C)C[C@@H](Cc6cn([C@]7(CO)O[C@@H](n8ccc(O)nc8=O)[C@@H](F)[C@@H]7O)nn6)[C@H](O)C(C)(C)[C@@H]5CC[C@]43C)[C@@H]12 | – | – | – | Not Active
C=C(C)[C@@H]1CC[C@]2(C(=O)O)CC[C@]3(C)[C@H](CC[C@@H]4[C@@]5(C)C[C@@H](Cc6cn([C@]7(CO)O[C@@H](n8ccc(O)nc8=O)[C@@H](F)[C@@H]7O)nn6)[C@H](O)C(C)(C)[C@@H]5CC[C@]43C)[C@@H]12 | 0.02 | 1190 | 23.8 | –
C=C(C)[C@@H]1CC[C@]2(C(=O)OC)CC[C@]3(C)[C@H](CC[C@@H]4[C@@]5(C)C[C@@H](Cc6cn([C@H]7C[C@H](n8cc(C)c(O)nc8=O)O[C@@H]7CO)nn6)C(=O)C(C)(C)[C@@H]5CC[C@]43C)[C@@H]12 | – | – | – | Not Active
C=C(C)[C@@H]1CC[C@]2(C(=O)OC)CC[C@]3(C)[C@H](CC[C@@H]4[C@@]5(C)C[C@@H](Cc6cn([C@]7(CO)O[C@@H](n8ccc(O)nc8=O)[C@@H](F)[C@@H]7O)nn6)C(=O)C(C)(C)[C@@H]5CC[C@]43C)[C@@H]12 | – | – | – | Not Active
C=C(C)[C@@H]1CC[C@]2(C(=O)OC)CC[C@]3(C)[C@H](CC[C@@H]4[C@@]5(C)C[C@@H](Cc6cn([C@]7(CO)O[C@@H](n8ccc(N)nc8=O)[C@@H](F)[C@@H]7O)nn6)C(=O)C(C)(C)[C@@H]5CC[C@]43C)[C@@H]12 | 0.097 | > 260 | > 25.2 | –
C=C(C)[C@@H]1CC[C@]2(C(=O)O)CC[C@]3(C)[C@H](CC[C@@H]4[C@@]5(C)C[C@@H](Cc6cn([C@H]7C[C@H](n8cc(C)c(O)nc8=O)O[C@@H]7CO)nn6)[C@H](O)C(C)(C)[C@@H]5CC[C@]43C)[C@@H]12 | > 1.3 | – | > 1.3 | –
C=C(C)[C@@H]1CC[C@]2(C(=O)OC)CC[C@]3(C)[C@H](CC[C@@H]4[C@@]5(C)C[C@@H](Cc6cn([C@]7(CO)O[C@@H](n8ccc(N)nc8=O)[C@@H](F)[C@@H]7O)nn6)[C@H](O)C(C)(C)[C@@H]5CC[C@]43C)[C@@H]12 | 0.048 | > 525 | > 25.2 | –
C=C(C)[C@@H]1CC[C@]2(C(=O)OC)CC[C@]3(C)[C@H](CC[C@@H]4[C@@]5(C)C[C@@H](Cc6cn([C@H]7C[C@H](n8cc(C)c(O)nc8=O)O[C@@H]7CO)nn6)[C@H](O)C(C)(C)[C@@H]5CC[C@]43C)[C@@H]12 | > 1.3 | – | > 1.3 | –
C=C(C)[C@@H]1CC[C@]2(C(=O)O)CC[C@]3(C)[C@H](CC[C@@H]4[C@@]5(C)C[C@@H](Cc6cn([C@]7(CO)O[C@@H](n8ccc(N)nc8=O)[C@@H](F)[C@@H]7O)nn6)[C@H](O)C(C)(C)[C@@H]5CC[C@]43C)[C@@H]12 | 0.0078 | 1230 | 9.6 | –
C=C(C)[C@@H]1CC[C@]2(C(=O)O)CC[C@]3(C)[C@H](CC[C@@H]4[C@@]5(C)CC[C@H](OC(=O)CC(C)(C)C(=O)O)C(C)(C)[C@@H]5CC[C@]43C)[C@@H]12 [BEVIRIMAT] | > 0.021 | > 326 | > 6.84 | –
[N-]=[N+]=N[C@]1(CO)O[C@@H](n2ccc(N)nc2=O)[C@@H](F)[C@@H]1O [RO-0622] | 0.000262 | 380 | 0.0996 | –
Cc1cn([C@H]2C[C@H](N=[N+]=[N-])[C@@H](CO)O2)c(=O)[nH]c1=O [ZIDOVUDINE] | 0.018 | > 20.6 | > 0.37 | –
